Assay results reported in patent US11352371B2, “Thienopyrimidine derivatives as ACC inhibitors and uses thereof” (Gilead Sciences, Inc., priority 2019, dated 2022).

Tested on: HepG2 cells
Assay: In vitro De Novo Lipogenesis (DNL) assay, 13C-acetate incorporation into palmitic acid
Format: cell-based
Conditions: 1 hour preincubation, 24 hours with 10 mM 13C-labeled acetate
Procedure: De Novo Lipogenesis (DNL) was measured in vitro in HepG2 cells by quantifying the incorporation of ^13C-labeled acetate into palmitic acid.
HepG2 cells were plated in growth medium (DMEM (Corning cat #15-018-CM) supplemented with 10% FBS (HyClone cat #SH30071-03), and 1× penicillin, streptomycin, glutamine (Corning cat #30-009-CI)) at 10,000 cells/well in a 384-well cell culture-treated plate (Greiner cat #781091). The cells were then incubated overnight at 37° C., 5% CO2. The next day, the cells were washed twice with sterile DPBS (Corning cat #21-031-CM) and the culture medium was changed to fresh growth medium. The compounds of interest were dosed to cells, followed by a 1 hour incubation at 37° C., 5% CO2. ^13C-labeled acetate (Sigma-Aldrich cat #279315-1G) was added to the culture medium at a concentration of 10 mM and the cells were incubated for 24 hours at 37° C., 5% CO2.
In order to analyze the lipid content of the HepG2 cells, the culture medium was removed and the cells were lysed by adding 30 μL of 0.1 M NaOH. After 5 minutes of incubation at room temperature, 15 μL of cell lysate was transferred to a 384-well deep-well plate (Sigma-Aldrich cat #BR701355-48EA) containing 15 μL of 7.3% KOH in ethanol and mixed. This plate was sealed and incubated at 70° C. for 4 hours to hydrolyze the lipids to free fatty acids. 100 μL of acetonitrile was then added and the plate was spun at 3,700 g for 20 minutes to separate the organic and aqueous phases. 50 μL from the top (organic) phase was transferred to a new 384-well plate (NUNC cat #264573) and the samples were analyzed by mass spectrometry using a RapidFire coupled to a QTOF mass spectrometer. The sum of the area under curve (AUC) for palmitate containing 3 to 7 ^13C was normalized with the AUC of oleate and plotted against compound concentration to determine the potency of ACC inhibitors. […]

EC50 [nM]	Compound
1.5	2-(1-((R)-2-(((1R,3s,5S)-8-oxabicyclo[3.2.1]octan-3-yl)oxy)-2-(2-methoxyphenyl)ethyl)-5-methyl-6-(oxazol-2-yl)-2,4-dioxo-1,4-dihydrothieno[2,3-d]pyrimidin-3 (2H)-yl)-N-(tert-butylsulfonyl)-2-methylpropanamide [Example 3]
1.7	COc1ccccc1[C@H](Cn1c(=O)n(C(C)(C)C(=O)NS(=O)(=O)C2CC2)c(=O)c2c(C)c(-c3ncco3)sc21)O[C@@H]1C[C@H]2CC[C@@H](C1)O2 [Example 4, 2-(1-((R)-2-(((1R,3s,5S)-8-oxabicyclo[3.2.1]octan-3-yl)oxy)-2-(2-methoxyphenyl)ethyl)-5-methyl-6-(oxazol-2-yl)-2,4-dioxo-1,4-dihydrothieno[2,3-d]pyrimidin-3 (2H)-yl)-N-(cyclopropylsulfonyl)-2-methylpropanamide]

Same assay, conditions: Homo sapiens, 1 hour preincubation, 24 hours with 10 mM 13C-labeled acetate

EC50 [nM]	Compound
5.9	COc1ccccc1[C@H](Cn1c(=O)n(C(C)(C)C(=O)NS(=O)(=O)C2(C(F)F)CC2)c(=O)c2c(C)c(-c3ncco3)sc21)O[C@@H]1C[C@H]2CC[C@@H](C1)O2 [Example 2, 2-(1-((R)-2-(((1R,3s,5S)-8-oxabicyclo[3.2.1]octan-3-yl)oxy)-2-(2-methoxyphenyl)ethyl)-5-methyl-6-(oxazol-2-yl)-2,4-dioxo-1,4-dihydrothieno[2,3-d]pyrimidin-3(2H)-yl)-N-((1-(difluoromethyl)cyclopropyl)sulfonyl)-2-methylpropanamide]
2.9	COc1ccc(F)cc1[C@H](Cn1c(=O)n(C(C)(C)C(=O)NS(=O)(=O)C2(C)CC2)c(=O)c2c(C)c(-c3ncco3)sc21)O[C@@H]1C[C@H]2CC[C@@H](C1)O2 [Example 5, 2-(1-((R)-2-(((1R,3s,5S)-8-oxabicyclo[3.2.1]octan-3-yl)oxy)-2-(5-fluoro-2-methoxyphenyl)ethyl)-5-methyl-6-(oxazol-2-yl)-2,4-dioxo-1,4-dihydrothieno[2,3-d]pyrimidin-3(2H)-yl)-2-methyl-N-((1-methylcyclopropyl)sulfonyl)propanamide]
7.6	Cc1c(-c2ncco2)sc2c1c(=O)n(C(C)(C)C(=O)NS(=O)(=O)C1CC1)c(=O)n2C[C@H](O[C@@H]1C[C@H]2CC[C@@H](C1)O2)c1cc(F)ccc1OC(F)F [Example 7, 2-(1-((R)-2-(((1R,3s,5S)-8-oxabicyclo[3.2.1]octan-3-yl)oxy)-2-(2-(difluoromethoxy)-5-fluorophenyl)ethyl)-5-methyl-6-(oxazol-2-yl)-2,4-dioxo-1,4-dihydrothieno[2,3-d]pyrimidin-3(2H)-yl)-N-(cyclopropylsulfonyl)-2-methylpropanamide]
7	Cc1c(-c2ncco2)sc2c1c(=O)n(C(C)(C)C(=O)NS(=O)(=O)C(C)(C)C)c(=O)n2C[C@H](O[C@@H]1C[C@H]2CC[C@@H](C1)O2)c1cc(F)ccc1OC(F)F [Example 8, 2-(1-((R)-2-(((1R,3s,5S)-8-oxabicyclo[3.2.1]octan-3-yl)oxy)-2-(2-(difluoromethoxy)-5-fluorophenyl)ethyl)-5-methyl-6-(oxazol-2-yl)-2,4-dioxo-1,4-dihydrothieno[2,3-d]pyrimidin-3(2H)-yl)-N-(tert-butylsulfonyl)-2-methylpropanamide]
215	Cc1c(-c2ncco2)sc2c1c(=O)n(C(C)(C)C(=O)NS(=O)(=O)c1ccccn1)c(=O)n2C[C@H](O[C@@H]1C[C@H]2CC[C@@H](C1)O2)c1cc(F)ccc1OC(F)F [Example 9, 2-(1-((R)-2-(((1R,3s,5S)-8-oxabicyclo[3.2.1]octan-3-yl)oxy)-2-(2-(difluoromethoxy)-5-fluorophenyl)ethyl)-5-methyl-6-(oxazol-2-yl)-2,4-dioxo-1,4-dihydrothieno[2,3-d]pyrimidin-3(2H)-yl)-2-methyl-N-(pyridin-2-ylsulfonyl)propanamide]
48.3	Cc1c(-c2ncco2)sc2c1c(=O)n(C1(C(=O)NS(=O)(=O)C3(C)CC3)CC1)c(=O)n2C[C@H](O[C@@H]1C[C@H]2CC[C@@H](C1)O2)c1cc(F)ccc1OC(F)F [Example 10, 1-(1-((R)-2-(((1R,3s,5S)-8-oxabicyclo[3.2.1]octan-3-yl)oxy)-2-(2-(difluoromethoxy)-5-fluorophenyl)ethyl)-5-methyl-6-(oxazol-2-yl)-2,4-dioxo-1,4-dihydrothieno[2,3-d]pyrimidin-3(2H)-yl)-N-((1-methylcyclopropyl)sulfonyl)cyclopropane-1-carboxamide]
66.2	Cc1c(-c2ncco2)sc2c1c(=O)n(C1(C(=O)NS(=O)(=O)C(C)(C)C)CC1)c(=O)n2C[C@H](O[C@@H]1C[C@H]2CC[C@@H](C1)O2)c1cc(F)ccc1OC(F)F [Example 11, 1-(1-((R)-2-(((1R,3s,5S)-8-oxabicyclo[3.2.1]octan-3-yl)oxy)-2-(2-(difluoromethoxy)-5-fluorophenyl)ethyl)-5-methyl-6-(oxazol-2-yl)-2,4-dioxo-1,4-dihydrothieno[2,3-d]pyrimidin-3(2H)-yl)-N-(tert-butylsulfonyl)cyclopropane-1-carboxamide]
882	Cc1c(-c2ncco2)sc2c1c(=O)n(C1(C(=O)NS(=O)(=O)C(C)(C)C)CC1)c(=O)n2C[C@H](O[C@@H]1C[C@H]2CC[C@@H](C1)O2)c1ccccc1OC(F)F [Example 13, 1-(1-((R)-2-(((1R,3s,5S)-8-oxabicyclo[3.2.1]octan-3-yl)oxy)-2-(2-(difluoromethoxy)phenyl)ethyl)-5-methyl-6-(oxazol-2-yl)-2,4-dioxo-1,4-dihydrothieno[2,3-d]pyrimidin-3(2H)-yl)-N-(tert-butylsulfonyl)cyclopropane-1-carboxamide]
29.8	Cc1c(-c2ncco2)sc2c1c(=O)n(C1(C(=O)NS(=O)(=O)C3(C)CC3)CC1)c(=O)n2C[C@H](O[C@@H]1C[C@H]2CC[C@@H](C1)O2)c1ccccc1OC(F)F [Example 14, 1-(1-((R)-2-(((1R,3s,5S)-8-oxabicyclo[3.2.1]octan-3-yl)oxy)-2-(2-(difluoromethoxy)phenyl)ethyl)-5-methyl-6-(oxazol-2-yl)-2,4-dioxo-1,4-dihydrothieno[2,3-d]pyrimidin-3(2H)-yl)-N-((1-methylcyclopropyl)sulfonyl)cyclopropane-1-carboxamide]
2000	Cc1c(-c2ncco2)sc2c1c(=O)n([C@@H](C)C(=O)NS(=O)(=O)C1(C)CC1)c(=O)n2C[C@H](O[C@@H]1C[C@H]2CC[C@@H](C1)O2)c1cc(F)ccc1OC(F)F [Example 15, (S)-2-(1-((R)-2-(((1R,3s,5S)-8-oxabicyclo[3.2.1]octan-3-yl)oxy)-2-(2-(difluoromethoxy)-5-fluorophenyl)ethyl)-5-methyl-6-(oxazol-2-yl)-2,4-dioxo-1,4-dihydrothieno[2,3-d]pyrimidin-3(2H)-yl)-N-((1-methylcyclopropyl)sulfonyl)propanamide]
1.9	COc1ccccc1[C@H](Cn1c(=O)n([C@@H](C)C(=O)NS(=O)(=O)C2(C)CC2)c(=O)c2c(C)c(-c3ncco3)sc21)O[C@@H]1C[C@H]2CC[C@@H](C1)O2 [Example 16, (S)-2-(1-((R)-2-(((1R,3s,5S)-8-oxabicyclo[3.2.1]octan-3-yl)oxy)-2-(2-methoxyphenyl)ethyl)-5-methyl-6-(oxazol-2-yl)-2,4-dioxo-1,4-dihydrothieno[2,3-d]pyrimidin-3(2H)-yl)-N-((1-methylcyclopropyl)sulfonyl)propanamide]
